Laboratory results reported in PMC7645381, “Development and application of a high-throughput screening assay for identification of small molecule inhibitors of the P. falciparum reticulocyte binding-like homologue 5 protein” (International Journal for Parasitology: Drugs and Drug …, 2020).

Legend:
[1] = target: T1, P. falciparum Rh5 (Rh5 – basigin interaction) (Plasmodium falciparum, UniProt Q8IFM5); assay: biochemical; parameters: AlphaScreen of Rh5 - His-tagged basigin interaction with anti-Rh5 mAb beads; inhibition of luminescence signal; details: Batch Reference=01; confirmation screen, duplicate
T1 sequence (Q8IFM5 24-526): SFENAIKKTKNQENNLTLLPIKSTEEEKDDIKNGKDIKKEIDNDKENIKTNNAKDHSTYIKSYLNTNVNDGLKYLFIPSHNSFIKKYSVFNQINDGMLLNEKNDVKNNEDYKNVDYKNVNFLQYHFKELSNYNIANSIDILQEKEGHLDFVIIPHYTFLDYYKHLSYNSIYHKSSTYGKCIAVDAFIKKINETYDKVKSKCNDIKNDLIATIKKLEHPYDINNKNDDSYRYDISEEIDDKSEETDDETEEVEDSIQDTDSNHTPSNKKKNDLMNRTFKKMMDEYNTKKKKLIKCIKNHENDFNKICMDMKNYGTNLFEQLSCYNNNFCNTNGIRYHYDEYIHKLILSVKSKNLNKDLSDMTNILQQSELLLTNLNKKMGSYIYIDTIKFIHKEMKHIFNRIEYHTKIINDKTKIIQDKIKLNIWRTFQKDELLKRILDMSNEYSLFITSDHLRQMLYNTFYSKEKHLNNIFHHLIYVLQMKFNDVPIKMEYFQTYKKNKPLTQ
Description: Using the Combi-multidrop, 5 μL of Rh5 stock solution (200 nM prepared in assay buffer) was added to columns 1–24 of the 384-well assay plate (Greiner 384-well white, low binding plate, #784904, Bioone). The PerkinElmer Janus automated dispensing system was then employed to transfer, via the pin-tool, 2 × 100 nL of the compound stock DMSO solution from the compound master plate to the assay plate. The plate was sealed and incubated for 30 min at room temperature. Using a Combi-multidrop, 5 μL of hexa-histidine tagged basigin stock solution (80 nM prepared in assay buffer) was then added to columns 1–23 and 5 μL assay buffer to column 24 of the 384-well assay plate. The plate was sealed again and incubated for 30 min at room temperature. A solution of AlphaScreen donor and acceptor beads (20 μg/mL prepared in assay buffer) plus anti-Rh5 mAb solution (2 μg/mL prepared in assay buffer) was prepared in assay buffer under subdued lighting. Using the Combi-multidrop, 10 μL of this solution was added to every well of the assay plate under subdued lighting. The plate was sealed with foil (plate max) and incubated at room temperature for 1 h. The assay plate was then analysed on the PerkinElmer Envision 2103 Multilabel Plate Reader (Ex 680, Em 520–620 nm). […] Historically, PPIs are notoriously difficult to target with small molecules. To enhance the likelihood of identifying an inhibitor of the Rh5 - basigin interaction the primary screen was conducted at a compound concentration of 20 μM. A 20 μM screening concentration is considered high, when compared to the commonly used primary screen concentrations of approximately 1–10 μM. […] To do this, a two-phase hit confirmation and counterscreen process was undertaken (Fig. 1). […] Both assays were undertaken at 10 μM in duplicate. The counterscreen assay was conducted using AlphaScreen TruHits.

D10-PfPHG parasites = assay: Schizont rupture assay; type: cell-based, P. falciparum
Description: D10-PfPHG parasites ([Wilson et al., 2010]) were cultured in human O^+ erythrocytes in RPMI-HEPES culture medium (pH 7.4, 50 μg/mL hypoxanthine, 25 mM NaHCO3, 20 μg/mL gentamicin, 0.5% Albumax II (Thermo Fisher Scientific) according to established protocols ([Trager and Jensen, 1976]) and maintained in an atmosphere of 1% O2, 4% CO2 and 95% N2. For assessment of merozoite invasion after schizont rupture, parasites were tightly synchronised to a 4 h window of invasion using heparin ([Boyle et al., 2010]; [Wilson et al., 2015]) and then grown for a further 42 h. Drug treatments were setup at 2–3% parasitaemia and 1% haematocrit in 50 μL volumes with a 1 in 10 dilution of drug added when parasites were 44–48 h post invasion. After 6 h of drug treatment and immediately after invasion was expected to finish, the assays were treated with 5 μg/mL ethidium bromide (EtBr, Bio-Rad) for 5 min prior to flow cytometry assessment of parasitaemia using a Becton Dickinson Accuri. Gating of newly invaded rings, free merozoites and unruptured late stages was achieved as per published methods ([Wilson et al., 2013]).
To determine if the modest activity of pranlukast and analogues in the parasite viability assay was a consequence of invasion inhibition, rather than inhibition at another stage of blood stage parasite development, we performed an assay that measures the effect of compound treatment on P. falciparum D10 asexual stage transition between late schizont and ring stages ([Wilson et al., 2013]). In this assay, highly synchronised mature schizont-stage parasites were incubated with pranlukast and selected analogues at 50 and 100 μM and the transition to newly invaded ring stage parasites was quantified by flow cytometry. In parallel, the rate of schizont rupture and merozoite release was quantified to assess whether any reduction in newly invaded ring stages was due to a block affecting merozoite release or development. […] Neither DMSO (at the maximal concentration used for the drug treatments of 0.1%) or a non-invasion inhibitory mAb control caused a reduction in merozoite invasion. […] […].

[2] = target: T1, P. falciparum Rh5 (Rh5 – basigin interaction); assay: biochemical; type: binding
[3] = Solubility in SPR running buffer; type: physicochemical
PfRh5 = PfRh5 (Plasmodium falciparum, UniProt Q8IFM5); assay: Differential scanning fluorimetry of Rh5; type: binding, P. falciparum; details: DSF
PfRh5, sequence (Q8IFM5 24-526): as above
Description: Differential scanning fluorimetry assays were performed as described previously ([Murphy et al., 2013], [2014a], [2014b]) using a Rotor-Gene Q PCR. Briefly, purified PfRh5 was diluted in 20 mM Tris pH 8.0, 150 mM NaCl to achieve 10 μg per reaction and assayed with the appropriate concentration of inhibitor in a total reaction volume of 25 μL. SYPRO Orange (Molecular Probes, CA) was used as a fluorescence probe and detected at 530 nm. Compounds were titrated at final concentrations ranging from 5 μM to 80 μM final. Data was transformed and plotted using GraphPad Prism. Shown data are representative means of two technical experiments.

HepG2 cells = assay: HepG2 growth inhibition assay; type: cell-based; details: Homo sapiens, 10-point dilution series, 48 h, Cell Titre-Glo
Description: HepG2 cells were cultured in Dulbeccos modified eagle's medium (DMEM) supplemented with 10% fetal calf serum (FCS), in a humidified incubator at 37 °C and 5% CO2. Ten-point compound titration assays were performed by treating cells (1 × 10^3) for 48 h in 384 well tissue culture treated plates (Greiner). Cytotoxicity was determined using Cell Titer Glo (Promega) and calculated as a percentage using DMSO as a positive growth control and 10 μM Bortezomib as a negative growth control. EC50 values were calculated using a 4-parameter log dose, non-linear regression analysis, with sigmoidal dose response (variable slope) curve fit using Graph Pad Prism (version 6.05). 0 and 100 constraint parameters were used for curve fitting. […]

**Q.** Which inhibition at 10 µM [1] does the source give for O=C(Nc1cccc2c(=O)cc(-c3nnn[nH]3)oc12)c1ccc(OCCCCc2ccccc2)cc1 [pranlukast] here?
**A.** 69%

**Q.** What about the “merozoite invasion (newly invaded early ring stages)” value (D10-PfPHG parasites; 50 and 100 μM, 6 h, flow cytometry) of the same molecule?
**A.** substantial reduction in the numbers of merozoites that had invaded and formed early ring stages

**Q.** And the free merozoite numbers (D10-PfPHG parasites; lowest concentration tested (50 μM))?
**A.** minimal loss in free merozoite numbers

**Q.** And the IC50 [2]?
**A.** 12 µM

**Q.** And the “solubility in the SPR running buffer” value [3]?
**A.** limited solubility

**Q.** What about the “effect on Tm of Rh5” value (PfRh5; concentrations of 0–20 μM) of the same molecule?
**A.** dose dependent increase in the Tm of Rh5

**Q.** And the “effect on Tm of Rh5” value (PfRh5; high concentration (>40 μM))?
**A.** markedly lower Tm

**Q.** What about the EC50 (HepG2 cells) of the same molecule?
**A.** > 50 µM
